Key:
αvβ6 = target: T1, αvβ6 (Homo sapiens, UniProt P06756+P18564); test: αvβ6 cell adhesion inhibition test (HT-29 cells on recombinant human LAP protein); type: cell-based; conditions: recombinant human LAP coating, 200 μM MnCl2, 1 hour, read-out: IC50 (rate of inhibition of cell adhesion, αvβ6)
T1 construct: endogenous in cells; host or cells: HT-29 cells
Outline: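 HT-29 cells in DMEM/0.1% BSA with 200 μM MnCl2 plus test compound, 1 h adhesion at 37 °C on plates coated with […] recombinant human LAP (BSA-blocked). Adherent cells crystal-violet stained and absorbance read; inhibition scaled between uncoated wells (100%) and DMSO (0%), IC50 derived and binned A–E.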

[1] = Transcellular transport test using Caco2 cell; type: in vitro ADME; conditions: human, Caco-2; Caco2 monolayer, A-to-B, 10 μM compound, pH 7.4, 90 minutes
Outline: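 Caco2 monolayers grown 20 to 22 days on 0.4 μm polycarbonate inserts; 10 μM compound (0.1% DMSO) added apically in HBSS/20 mM HEPES pH 7.4, 90 min at 37° C. Basolateral compound quantified by LC-MS/MS; A-to-B Papp computed from transport slope, membrane area and UV-HPLC-measured donor concentration.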

T1 sequence (P06756 31-889 limits assumed): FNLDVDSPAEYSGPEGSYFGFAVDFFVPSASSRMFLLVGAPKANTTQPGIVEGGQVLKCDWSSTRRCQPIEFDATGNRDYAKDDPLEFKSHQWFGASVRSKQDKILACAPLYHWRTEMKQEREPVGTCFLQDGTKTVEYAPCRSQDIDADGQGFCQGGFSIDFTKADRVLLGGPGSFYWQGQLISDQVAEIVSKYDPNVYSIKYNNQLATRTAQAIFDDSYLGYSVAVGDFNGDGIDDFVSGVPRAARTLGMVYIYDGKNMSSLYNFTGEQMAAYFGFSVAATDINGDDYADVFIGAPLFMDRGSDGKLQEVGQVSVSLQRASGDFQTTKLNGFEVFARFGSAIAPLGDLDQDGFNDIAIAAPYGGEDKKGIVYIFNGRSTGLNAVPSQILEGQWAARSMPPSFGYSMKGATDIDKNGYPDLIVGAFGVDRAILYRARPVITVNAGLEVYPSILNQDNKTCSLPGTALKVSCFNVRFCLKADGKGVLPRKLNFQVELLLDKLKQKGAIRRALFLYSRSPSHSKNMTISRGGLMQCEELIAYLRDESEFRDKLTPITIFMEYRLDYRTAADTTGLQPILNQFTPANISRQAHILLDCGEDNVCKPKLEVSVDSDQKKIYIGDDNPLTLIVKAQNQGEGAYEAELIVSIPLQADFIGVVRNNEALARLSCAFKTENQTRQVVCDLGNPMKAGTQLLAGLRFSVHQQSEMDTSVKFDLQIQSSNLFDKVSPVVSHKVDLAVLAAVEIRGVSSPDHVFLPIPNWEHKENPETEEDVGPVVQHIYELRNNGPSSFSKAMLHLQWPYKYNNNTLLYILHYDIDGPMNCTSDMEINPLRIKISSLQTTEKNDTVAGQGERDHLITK
T1 sequence (P06756 891-1048 limits assumed): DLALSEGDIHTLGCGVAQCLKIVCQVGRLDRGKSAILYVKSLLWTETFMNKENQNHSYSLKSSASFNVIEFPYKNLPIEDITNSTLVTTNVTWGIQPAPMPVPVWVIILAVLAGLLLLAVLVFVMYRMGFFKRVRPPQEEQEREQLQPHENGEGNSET
T1 sequence (P18564 22-788): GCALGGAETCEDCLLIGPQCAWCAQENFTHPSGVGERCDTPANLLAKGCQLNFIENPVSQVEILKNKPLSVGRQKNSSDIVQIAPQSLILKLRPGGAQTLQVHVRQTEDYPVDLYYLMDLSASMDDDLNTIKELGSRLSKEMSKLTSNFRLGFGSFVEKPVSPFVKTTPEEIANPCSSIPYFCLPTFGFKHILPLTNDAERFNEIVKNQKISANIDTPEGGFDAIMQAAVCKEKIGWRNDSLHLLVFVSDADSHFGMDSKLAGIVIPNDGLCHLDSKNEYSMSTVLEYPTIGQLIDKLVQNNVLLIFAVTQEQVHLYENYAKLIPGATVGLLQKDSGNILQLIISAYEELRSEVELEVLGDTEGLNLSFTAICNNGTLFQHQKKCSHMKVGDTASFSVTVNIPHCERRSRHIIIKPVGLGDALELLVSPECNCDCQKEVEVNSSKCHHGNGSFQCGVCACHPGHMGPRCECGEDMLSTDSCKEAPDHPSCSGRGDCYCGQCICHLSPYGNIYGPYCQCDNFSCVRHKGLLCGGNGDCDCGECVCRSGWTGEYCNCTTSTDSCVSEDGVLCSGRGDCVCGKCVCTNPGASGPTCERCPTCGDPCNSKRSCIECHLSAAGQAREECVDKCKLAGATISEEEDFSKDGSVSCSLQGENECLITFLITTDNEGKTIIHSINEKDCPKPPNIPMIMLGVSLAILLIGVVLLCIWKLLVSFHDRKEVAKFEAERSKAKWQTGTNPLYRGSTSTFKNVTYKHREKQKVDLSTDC

SMILES | IC50 (αvβ6) [nM] | Papp A→B at 90 min, 10 μM [1] [×10⁻⁶ cm/s]
O=C(O)C[C@H](NC(=O)CNC(=O)c1cc(NC2=NCC(F)CN2)c2c(Cl)n[nH]c2c1)c1cc(Cl)cc(C(F)(F)F)c1 (stereo partly drawn) [Example 49-(b), (3S)-3-(2-(3-chloro-4-((5-fluoro-1,4,5,6-tetrahydropyrimidin-2-yl)amino)-1H-indazole-6-carboxamido)acetamido)-3-(3-chloro-5-(trifluoromethyl)phenyl)propanoic acid] | < 3 | 0.5 to 1
O=C(O)C[C@H](NC(=O)CNC(=O)c1cc(NC2=NCC(O)CN2)c2cn[nH]c2c1)c1cc(Cl)cc(C(F)(F)F)c1 (stereo partly drawn) [Example 50-(b), (3S)-3-(3-chloro-5-(trifluoromethyl)phenyl)-3-(2-(4-((5-hydroxy-1,4,5,6-tetrahydropyrimidin-2-yl)amino)-1H-indazole-6-carboxamido)acetamido)propanoic acid] | 10 to 30 | > 1
O=C(O)C[C@H](NC(=O)CNC(=O)c1cc(NC2=NCCCN2)c2cn[nH]c2c1)c1cc(Cl)cc(C(F)(F)F)c1 [Example 51-(b), (S)-3-(3-chloro-5-(trifluoromethyl)phenyl)-3-(2-(4-((1,4,5,6-tetrahydropyrimidin-2-yl)amino)-1H-indazole-6-carboxamido)acetamido)propanoic acid] | 10 to 30 | > 1
O=C(O)C[C@H](NC(=O)CNC(=O)c1cc(NC2=NCC(F)CN2)cc2[nH]ncc12)c1cc(Cl)cc(C(F)(F)F)c1 (stereo partly drawn) [Example 52-(b), (3S)-3-(3-chloro-5-(trifluoromethyl)phenyl)-3-(2-(6-((5-fluoro-1,4,5,6-tetrahydropyrimidin-2-yl)amino)-1H-indazole-4-carboxamido)acetamido)propanoic acid] | < 3 | 0.1 to 0.5
O=C(O)C[C@H](NC(=O)CNC(=O)c1cc(NC2=NCC(F)CN2)cc2[nH]ncc12)c1cc(Br)cc(C(F)(F)F)c1 (stereo partly drawn) [Example 53-(b), (3S)-3-(3-bromo-5-(trifluoromethyl)phenyl)-3-(2-(6-((5-fluoro-1,4,5,6-tetrahydropyrimidin-2-yl)amino)-1H-indazole-4-carboxamido)acetamido)propanoic acid] | < 3 | 0.1 to 0.5
O=C(O)C[C@H](NC(=O)CNC(=O)c1cc(NC2=NCC(F)CN2)cc2[nH]ncc12)c1cc(I)cc(C(F)(F)F)c1 (stereo partly drawn) [Example 54-(b), (3S)-3-(2-(6-((5-fluoro-1,4,5,6-tetrahydropyrimidin-2-yl)amino)-1H-indazole-4-carboxamido)acetamido)-3-(3-iodo-5-(trifluoromethyl)phenyl)propanoic acid] | < 3 | 0.1 to 0.5
O=C(O)C[C@H](NC(=O)CNC(=O)c1cc(NC2=NCC(F)CN2)cc2[nH]ncc12)c1ccc(F)c(C(F)(F)F)c1 (stereo partly drawn) [Example 55-(b), (3S)-3-(2-(6-((5-fluoro-1,4,5,6-tetrahydropyrimidin-2-yl)amino)-1H-indazole-4-carboxamido)acetamido)-3-(4-fluoro-3-(trifluoromethyl)phenyl)propanoic acid] | < 3 | 0.1 to 0.5
O=C(O)C[C@H](NC(=O)CNC(=O)c1cc(NC2=NCC(F)CN2)cc2[nH]ncc12)c1cccc(C(F)(F)F)c1 (stereo partly drawn) [Example 56-(b), (3S)-3-(2-(6-((5-fluoro-1,4,5,6-tetrahydropyrimidin-2-yl)amino)-1H-indazole-4-carboxamido)acetamido)-3-(3-(trifluoromethyl)phenyl)propanoic acid] | 3 to 10 | 0.1 to 0.5

Source: patent US20230192661A1, “1, 4, 5, 6-TETRAHYDROPYRIMIDINE-2-AMINE DERIVATIVE” (UBE Corporation, priority 2020, published 2023)
